From PubChem BioAssay AID1996
Converted amounts (≈) assume the structure as drawn.

settings: buffer; pH 7.4; 200.0 µM

Row | SMILES | solubility kinetic
1 | COc1ccc(CCNS(=O)(=O)c2ccc3[nH]c(=O)[nH]c3c2)cc1 | 11.3 µg/mL (≈ 32.5 µM)
2 | Cc1cc(NC(=O)COc2ccccc2C#N)no1 | 11.2 µg/mL (≈ 43.5 µM)
3 | CN1C(=O)C(CC(=O)NC2CCCCC2)N(C)C1=O (stereo not given) | > 40.1 µg/mL
4 | COc1cc(/C=N/NC(=O)CNC(=O)c2ccncc2)ccc1O | > 49.2 µg/mL
5 | COc1ccc(CNc2cc(C)ccn2)cc1 | 17.4 µg/mL (≈ 76.2 µM)
6 | CC(NC(=O)CCC(=O)NCc1ccc(F)cc1)c1ccccc1 (stereo not given) | > 49.3 µg/mL
7 | CC(=O)NCCc1c(C)n(Cc2ccccc2)c2ccccc12 | > 46 µg/mL
8 | Clc1ccc(Cn2ccnc2)cn1 | 24.2 µg/mL (≈ 125 µM)
9 | C=CC1CN2CCC1CC2C(OC(C)=O)c1ccnc2ccc(OC)cc12 (stereo not given) | > 55 µg/mL
10 | Cc1cccc(C)c1NC(=O)c1cccc(C(=O)Nc2c(C)cccc2C)n1 | 27.7 µg/mL (≈ 74.2 µM)
11 | Cc1cccc[n+]1CC(=O)Nc1ccccc1.[Cl-] | 26.6 µg/mL
12 | N#Cc1c(N)n(-c2ccc(O)cc2)c2nc3ccccc3nc12 | 1.2 µg/mL (≈ 3.98 µM)
13 | COc1ccc(N2C(=O)NC(=O)/C(=C\c3ccccc3[N+](=O)[O-])C2=O)cc1 | 54.4 µg/mL (≈ 148 µM)
14 | CCn1c(NC(=O)C(C)C)c(-c2cccs2)c(=O)c2ccccc21 | > 51.1 µg/mL
15 | O=C(CCOc1ccccc1)Nc1ccccc1F | 37.4 µg/mL (≈ 144 µM)
16 | Cc1cc(OCC(=O)Nc2ccccc2C)no1 | > 36.9 µg/mL
17 | CC(=O)N=c1sccn1CC(O)c1ccccc1 (stereo not given) | > 39.3 µg/mL
18 | CCOC(=O)CNC(=S)N(Cc1ccccc1)Cc1cccs1 | 19.8 µg/mL (≈ 56.8 µM)
19 | COc1ccc2c(c1)CCCC21NC(=O)N(CC(=O)NCc2cccs2)C1=O (stereo not given) | > 59.9 µg/mL
20 | CC1(C)OCC(COC(=O)Nc2cccnc2)([N+](=O)[O-])CO1 | 39.8 µg/mL (≈ 128 µM)

Row | SMILES | solubility kinetic
21 | CC(NC(=S)Nc1ccc(OC(F)F)c(Cl)c1)C(C)(C)C (stereo not given) | 2.3 µg/mL (≈ 6.83 µM)
22 | CC(=O)c1ccc(NC2=NCCCS2)cc1 | > 35.1 µg/mL
23 | Cc1ccc2c(C(=O)CCl)c(C)[nH]c2c1 | 3.4 µg/mL (≈ 15.3 µM)
24 | Cc1ccc2c(CN3CCC(C(N)=O)CC3)cc(=O)oc2c1C | 46.2 µg/mL (≈ 147 µM)
25 | CCOc1ccc2nc(N(CCN(C)C)C(=O)c3cc4ccccc4cc3OC)sc2c1.Cl | 4.2 µg/mL
26 | O=C(Nc1ccn([C@H]2CC[C@@H](CO)O2)c(=O)n1)c1ccccc1 | > 47.3 µg/mL
27 | Cc1nnc(SCC(=O)Nc2ccc(N(C)C)cc2)n(N)c1=O | > 50.2 µg/mL
28 | O=C(Nc1ccccc1)C1CC(=O)N(Cc2ccccc2)C1 (stereo not given) | > 44.2 µg/mL
29 | CC(=O)c1c(C)[nH]c(C(=O)OCC(=O)c2ccc3c(c2)NC(=O)CO3)c1C | 10.5 µg/mL (≈ 28.4 µM)
30 | C=CCNc1nc(N)c([N+](=O)[O-])c(NCCO)n1 | > 38.1 µg/mL
31 | Cc1nc2c(=O)n(-c3ccc(F)cc3F)nc(C)c2s1 | > 44 µg/mL
32 | COc1ccc(C2NC(=O)CCC2[N+](=O)[O-])cc1 (stereo not given) | > 37.5 µg/mL
33 | CC(C)C1Cc2ccccc2-c2[nH]c(=S)[nH]c(=O)c21 (stereo not given) | 27 µg/mL (≈ 99.1 µM)
34 | COc1ccc(-c2cn3cccnc3n2)cc1 | > 33.8 µg/mL
35 | COC(=O)[C@H](CC(C)C)NC(=O)NCc1ccc(Cl)cc1 | 42.5 µg/mL (≈ 136 µM)
36 | Cc1ccc(C(=O)NCC(=O)Nc2ccncc2)s1 | > 41.3 µg/mL
37 | N#Cc1c(-c2ccccc2)ccnc1N1CCOCC1 | 17.6 µg/mL (≈ 66.3 µM)
38 | COc1ccc(CCNC(=O)CCc2nc3ccccc3[nH]2)cc1OC | > 53 µg/mL
39 | CC1(C2CC2)NC(=O)N(CC(=O)Nc2ccc(SC(F)F)cc2)C1=O (stereo not given) | > 55.4 µg/mL
40 | CN[C@@H]1CC[C@H](c2ccc(Cl)c(Cl)c2)c2ccccc21 | 28.8 µg/mL (≈ 94 µM)

Row | SMILES | solubility kinetic
41 | CCC(C(=O)Nc1ccccn1)c1ccccc1 (stereo not given) | > 36 µg/mL
42 | Cc1onc(-c2ccccc2Cl)c1C(=O)N1CCN(C)CC1 | > 48 µg/mL
43 | CCN(CC)P(c1n(C)cc[n+]1C)N(CC)CC.[I-] | 46.9 µg/mL
44 | O=C(COC(=O)c1cncc(Br)c1)NC1CCCCC1 | 46.6 µg/mL (≈ 137 µM)
45 | CC(C)[C@H](NS(=O)(=O)c1ccccc1F)C(=O)NC1CCCCC1 | > 53.5 µg/mL
46 | Cc1ccc(NC(=S)N2CCC(c3ccccc3)C2)c(Cl)c1 (stereo not given) | 7.1 µg/mL (≈ 21.5 µM)
47 | Cc1ccc(NC(=O)CN(C)C(=O)Cc2c[nH]c3ccccc23)cc1 | > 50.3 µg/mL
48 | CC(OC(=O)c1ccco1)C(=O)Nc1ccc(Cl)cn1 (stereo not given) | > 44.2 µg/mL
49 | CC1CCCCC12NC(=O)N(CC(=O)c1ccc(Cl)s1)C2=O (stereo not given) | 8.5 µg/mL (≈ 24.9 µM)
50 | Cc1cccc(NC(=O)C2COc3ccccc3O2)c1 (stereo not given) | 7.8 µg/mL (≈ 29 µM)
51 | Cc1ccccc1Nc1c(-c2ccccc2)nc2ncccn12 | 8.1 µg/mL (≈ 27 µM)
52 | Cc1c(C(=O)N2CCOCC2)sc(NC(=O)C(C)C)c1C#N | > 48.2 µg/mL
53 | O=C(O)c1cc(S(=O)(=O)N2CCOCC2)c[nH]1 | > 39 µg/mL
54 | CCCCOc1ncnc2c1[nH]c1ccc(C)cc12 | 0.6 µg/mL (≈ 2.35 µM)
55 | COC(=O)c1ccc(OC)c(Cn2c(=O)n(C)c(=O)c3ccccc32)c1 | 2.2 µg/mL (≈ 6.21 µM)
56 | Cn1c(=NC(=O)COc2ccccc2)sc2cccc(F)c21 | < 0.3 µg/mL
57 | Cc1ccc(NC(=O)OCc2cc(-c3ccccc3)on2)cc1 | < 0.3 µg/mL
58 | O=C(NCCCNC(=O)c1ccccn1)c1ccc(Cl)cc1 | 39 µg/mL (≈ 123 µM)
59 | CN(c1ccc(F)cc1)S(=O)(=O)c1ccc(Cl)c(C(=O)OCC(=O)NC2CC2)c1 | 11.7 µg/mL (≈ 26.5 µM)
60 | COC(CN(C)C(C(=O)NC1CCCCC1)c1ccccc1)OC (stereo not given) | > 50.2 µg/mL
